Where “and” joins values, the source holds several entries; their conditions need not be identical. Identical values can stand only once. Like-named read-outs stand apart in the source and are kept apart here.
Experiments:
[1] = target: T1, BlaC (Mycobacterium tuberculosis, UniProt P9WKD3); experiment: BlaC fluorogenic inhibition assay with FC5 (dose-response); type: biochemical; details: Table S5 HTS hits, 30 minute inhibitor pre-incubation, two independent repeats; for IC50: pIC50 BlaC
T1 construct: made in house; host or cells: E. coli
T1 sequence (P9WKD3 35-307): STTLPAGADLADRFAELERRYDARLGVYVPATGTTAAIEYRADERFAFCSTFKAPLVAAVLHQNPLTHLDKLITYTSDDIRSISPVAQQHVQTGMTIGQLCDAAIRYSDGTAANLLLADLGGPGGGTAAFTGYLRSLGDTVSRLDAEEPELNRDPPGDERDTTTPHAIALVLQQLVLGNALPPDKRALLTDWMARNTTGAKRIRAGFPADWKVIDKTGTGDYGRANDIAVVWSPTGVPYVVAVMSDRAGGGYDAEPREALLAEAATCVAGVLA
Method: Two types of controls were used. […] In control 2, the BlaC mixture was substituted with the assay buffer. This mixture was incubated for 30 minutes at room temperature without shaking. […] Data were analysed using ActivityBase (IDBS).

[2] = system: M. tuberculosis (strain H37Rv); experiment: Extracellular assay: M. tuberculosis H37Rv in medium under replicating conditions; type: cell-based, Mycobacterium tuberculosis
[3] = system: HepG2 cells; experiment: HepG2 cytotoxicity assay (CellTiter Glo); type: cell-based; details: 48 h, ATP read-out
Method: Solutions of the test compounds (250 nL per well; 11 serial dilutions of 1/3 with starting concentration 100 μM) were dispensed in tissue-culture treated black clear-bottomed 384-well plates (Greiner, cat. no. 781091) with an Echo 555 instrument. 25 μL of HepG2 (ATCC HB-8065) cells (∼3000 cells per well) grown to confluency in Eagle's Minimal Essential Medium (MEM) supplemented with 10% (v/v) heat-inactivated FBS, 1% (v/v) non-essential amino acids (NEAA), and 1% (v/v) penicillin/streptomycin were added to each well. Plates were incubated at 37 °C with 20% O2 and 5% CO2 for 48 h. The plates were then equilibrated to room temperature. ATP levels, measured with CellTiter Glo kit (Promega), were used as cell viability read-out. 25 μL of CellTiter Glo substrate dissolved in the buffer was added to each well. Plates were incubated at room temperature for 10 min and read on ViewLux (PerkinElmer) […].

[4] = target: T2, LdtMt2 (Mycobacterium tuberculosis, UniProt I6Y9J2); experiment: biochemical; type: biochemical; design: made in house; host or cells: E. coli; details: for IC50: Table S5 HTS hits, 30 minute inhibitor pre-incubation, two independent repeats, read-out: pIC50 LdtMt2 (converted)
T2 sequence (I6Y9J2 56-408): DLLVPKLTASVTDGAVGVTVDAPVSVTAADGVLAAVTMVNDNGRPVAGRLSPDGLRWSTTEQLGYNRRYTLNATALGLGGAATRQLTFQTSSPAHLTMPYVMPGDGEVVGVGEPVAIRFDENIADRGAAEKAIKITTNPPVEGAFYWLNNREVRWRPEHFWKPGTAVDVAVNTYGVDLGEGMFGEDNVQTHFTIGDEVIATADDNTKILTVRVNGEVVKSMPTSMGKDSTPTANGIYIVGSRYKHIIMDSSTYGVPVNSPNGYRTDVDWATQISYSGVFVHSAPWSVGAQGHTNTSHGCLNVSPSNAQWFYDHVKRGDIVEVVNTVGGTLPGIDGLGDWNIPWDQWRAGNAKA

[5] = target: T2, LdtMt2; experiment: Rate constant of covalent target inactivation (kinact/KI), endpoint competition assay with probe 2; type: biochemical; design: made in house; host or cells: E. coli
[6] = target: T2, LdtMt2; experiment: biochemical; type: binding; design: made in house; host or cells: E. coli; details: for ΔTm at 500 µM: read-out: ΔTm: difference in melting point of LdtMt2 relative to unreacted LdtMt2 (43.8 °C)
Method: LdtMt2 (5 μM) was incubated with the inhibitor (500 μM) in assay buffer (50 mM tris pH 7.5) for 30 minutes at room temperature in 96-well white PCR plates (25 μL final volume, Starlab). SYPRO Orange (final concentration 6×, according to manufacturer's definition, Invitrogen) was then added and the plate was sealed using a transparent plastic film (Polyolefin StarSeal, Starlab). Fluorescence was monitored (with λex = 492 nm and λem = 610 nm) using a CFX96 Touch Real-Time PCR Detection System (Bio-Rad), while the temperature was increased from 20 to 95 °C in increments of 0.2 °C. Melting temperatures (Tms) were determined using the CFX Maestro Software (Bio-Rad).

[7] = Intrinsic thiol reactivity (kchem), competition with probe 2 for L-glutathione; type: physicochemical
[8] = system: M. tuberculosis (strain H37Rv) growth in THP1 cells; experiment: Intracellular assay: Mtb H37Rv-Luc in THP-1 macrophages; type: cell-based, Mycobacterium tuberculosis; details: 5 days, extrapolated from dose-response curve
[9] = 100 nM LdtMt2, 10 µM probe 2, 3 h incubation, n=4
[10] = 5 µM LdtMt2, 500 µM inhibitor, SYPRO Orange, 50 mM Tris pH 7.5
[11] = Table S5, L-glutathione 500 nM, probe 2 10 µM, 15 h
[12] = 100 nM LdtMt2, 10 µM probe 2, 3 h incubation, n=4, read-out: kinact/KI

Structure (SMILES)	pIC50 BlaC [1]	LE (ligand efficiency) [4]	kinact/KI [5, 9]	ΔTm: difference in melting point of LdtMt2 relative to unreacted LdtMt2 (43.8 °C) [6]	Tm: melting point of LdtMt2 after pre-incubation with the compound ([6]; pH 7.5, in °C (unit assumed))	IC50 [1]	LE (ligand efficiency) ([4]; Table S5, for LdtMt2)	IC50 [4]	ΔTm at 500 µM [6]	other results
N#Cn1c(-c2cc(F)cc(C(F)(F)F)c2)nc2ccccc21 [Compound 23]	< 4.0	0.51	265 M⁻¹ s⁻¹	-1.3	42.5 ± 0.09					MIC50 [2]: > 100 µM; IC50 [3]: 28.8 µM
N#Cn1c(-c2ccnnc2)nc2ccccc21 [Compound 24]	< 4.0	0.66	158 ± 5.7 M⁻¹ s⁻¹		42.0 ± 0.00					
CS(=O)(=O)c1ccc(F)c(N2C(=O)C=CC2=O)c1 [Compound 4]						60.3 µM	0.62	0.0871 µM	1.8 °C	kinact/KI [5]: 36.5 ± 7.9 M⁻¹ s⁻¹; Tm: melting point of LdtMt2 after pre-incubation with the compound [6, 10]: 45.6 ± 0.28 °C
O=c1c2cc(Cl)c(Cl)cc2sn1CCO [Compound 15]						0.427 µM	0.74	0.0102 µM	-0.3 °C	MIC50 ([2]; Mycobacterium tuberculosis): > 100 µM; IC50 ([3]; Homo sapiens, HepG2): 9.55 ± 0.22 µM; Tm: melting point of LdtMt2 after pre-incubation with the compound [6, 10]: 43.5 ± 0.09 °C
COc1ccc(CN2C(=O)C(=O)c3cc(Br)cc(C)c32)cc1OC [Compound 17]	< 4.0	0.47		+3.0	46.8 ± 0.00					kchem (apparent intrinsic thiol reactivity) [7, 11]: < 0.08 M⁻¹ s⁻¹; MIC50 [2]: > 100 µM; IC50 [3]: 53.5 ± 6.7 µM; pIC50, 0 min [4]: 6.48 ± 0.14; pIC50, 10 min [4]: 6.33 ± 0.14; pIC50, 60 min [4]: 6.28 ± 0.45; pIC50, 120 min [4]: 6.45 ± 0.26
Cc1nc(-c2ccc(-c3nc4ccccc4n3C#N)cc2)cs1 [Compound 30]		0.49	236 ± 9.5 M⁻¹ s⁻¹	-1.6	42.2 ± 0.00					MIC50 [2]: > 100 µM; IC50 [3]: 3.98 ± 0.1 µM
N#Cn1c(-c2ccc(F)cc2C(F)(F)F)nc2ccccc21 [Compound 22]						> 100 µM	0.51	0.0295 µM	-1.3 °C	kinact/KI [5]: 55.1 ± 3 M⁻¹ s⁻¹; Tm: melting point of LdtMt2 after pre-incubation with the compound [6, 10]: 42.5 ± 0.09 °C
Cc1ccc(C=CC(=O)Nc2ccccc2C(N)=O)o1 [Compound 11]	< 4.0	0.56	172 ± 6.0 M⁻¹ s⁻¹	+0.2	44.0 ± 0.16					
N#Cn1cnc2ccccc21 [Compound 40]										kchem (apparent intrinsic thiol reactivity) ([7]; Table S10 known cyanating compounds, unit printed in b38 only): 0.90 ± 0.05 M⁻¹ s⁻¹ and 0.90 M⁻¹ s⁻¹; pIC50 LdtMt2 [4]: 6.31 ± 0.03
N#Cn1c(-c2cnc(-c3cccs3)nc2)nc2ccccc21 [Compound 31]						11.2 µM	0.51	0.0479 µM	-1.7 °C	kinact/KI [5, 12]: 609 ± 11 M⁻¹ s⁻¹; Tm: melting point of LdtMt2 after pre-incubation with the compound [6, 10]: 42.1 ± 0.10 °C
NC(=O)C=CC(=O)Nc1ccc(Cl)cc1 [Compound 13]						> 100 µM	0.75	0.417 µM	1 °C	kinact/KI [5, 12]: 6.48 ± 0.11 M⁻¹ s⁻¹; Tm: melting point of LdtMt2 after pre-incubation with the compound [6, 10]: 44.8 ± 0.00 °C
COc1ccc(COC(=O)C2N3C(=O)C(Br)C3S(=O)(=O)C2(C)C)cc1 (stereo not drawn) [Compound 21]		0.45	53.2 ± 4.7 M⁻¹ s⁻¹	-0.7	43.1 ± 0.09					
N#Cn1c(-c2ccncc2)nc2ccc(-c3ccco3)cc21 [Compound 33]		0.51	71.8 ± 1.1 M⁻¹ s⁻¹	-0.5	43.3 ± 0.09					
CCC(C)C(NC(=O)OCc1ccccc1)C(=O)CCl (stereo not drawn) [Compound 2]						> 100 µM	0.56	0.0776 µM	-0.1 °C	kinact/KI [5]: 68.4 ± 3.5 M⁻¹ s⁻¹; Tm: melting point of LdtMt2 after pre-incubation with the compound [6, 10]: 43.7 ± 0.09 °C
CC(N)C(=O)NC1CCN(c2ccc(N3CCCC3)cc2C#N)C1 (stereo not drawn) [Compound 39]	< 4.0	0.47		-0.7	43.1 ± 0.10					MIC50 intracellular [8]: 28.8 ± 0.0 µM and < 50 µM; MIC50 [2]: > 100 µM; IC50 [3]: > 100 µM
O=C1C=CC(=O)N1c1ccccc1 [Compound 3]						9.33 µM	0.86	0.0708 µM	1.2 °C	kinact/KI [5]: 3990 ± 356 M⁻¹ s⁻¹; Tm: melting point of LdtMt2 after pre-incubation with the compound [6, 10]: 45.0 ± 0.16 °C
N#Cn1c(-c2ccncc2)nc2ccc(-c3ccncc3)cc21 [Compound 34]	< 4.0	0.49	68.4 ± 2.7 M⁻¹ s⁻¹	-1.7	42.1 ± 0.09					
N#Cn1c(-c2cncnc2)nc2ccccc21 [Compound 25]	< 4.0	0.66	77.5 ± 6.0 M⁻¹ s⁻¹							
N#Cn1c(-c2ccc(OC3CCOCC3)cc2)nc2ccccc21 [Compound 32]		0.47	86.3 ± 2.6 M⁻¹ s⁻¹	-1.5	42.3 ± 0.09					
O=C(NC(Cc1ccccc1)C(=O)CCl)c1cc(Cc2ccccc2)on1 (stereo not drawn) [Compound 1]	< 4.0	0.41	1152 ± 87 M⁻¹ s⁻¹							MIC50 intracellular [8]: 35.5 ± 4.9 µM and < 50 µM; MIC50 [2]: > 100 µM
COc1cccc(NC(=O)/C(Cl)=C(\Cl)S(=O)(=O)Cc2ccccc2Cl)n1 [Compound 8]						> 100 µM	0.43	0.0692 µM	0.7 °C	kinact/KI [5]: 91.6 ± 2 M⁻¹ s⁻¹
NC(=O)OCC1=C(C(=O)O)N2C(=O)C(NC(=O)C(=CS(=O)(=O)CCc3ccc(O)c(O)c3)c3csc(N)n3)C2SC1 (stereo not drawn) [Compound 20]	7.72	0.28		-1.1	42.7 ± 0.25					MIC50 intracellular [8]: 38.9 ± 1.8 µM and < 50 µM; MIC50 [2]: > 100 µM; IC50 [3]: > 100 µM
N#Cn1c(-c2ccc(-c3nccs3)cc2)nc2ccccc21 [Compound 29]		0.51	1164 ± 105 M⁻¹ s⁻¹	-0.9	42.9 ± 0.19					
O=C1CN(C(=O)C=Cc2ccco2)c2ccccc2N1 [Compound 12]	< 4.0	0.56		+0.3	44.1 ± 0.09					kchem (apparent intrinsic thiol reactivity) [7, 11]: 0.55 ± 0.11 M⁻¹ s⁻¹
CC(C)(C)OC(=O)Nc1ccc(N2C(=O)C=CC2=O)cc1 [Compound 6]		0.52	127 ± 7.7 M⁻¹ s⁻¹	+1.7 °C						Tm: melting point of LdtMt2 after pre-incubation with the compound ([6]; pH 7.5): 45.5 ± 0.09 °C
